In one experiment the target is Nav1.6 (Homo sapiens, UniProt Q9UQD0). To be noted: read-out: TTX IC-50; cited from earlier work.
For the next experiment, the target named is Nav1.2 (Homo sapiens, UniProt Q99250). To be noted: read-out: TTX IC-50; cited from earlier work.
Another experiment has as its target Nav1.9 (Homo sapiens, UniProt Q9UI33). To be noted: read-out: TTX IC-50; cited from earlier work.
A further experiment concerns the target Nav1.1 (Homo sapiens, UniProt P35498). To be noted: read-out: TTX IC-50; cited from earlier work.
The target of the next experiment is Nav1.8 (Homo sapiens, UniProt Q9Y5Y9). To be noted: read-out: TTX IC-50; cited from earlier work.
The target of another experiment is Nav1.3 (Homo sapiens, UniProt Q9NY46). To be noted: read-out: TTX IC-50; cited from earlier work.
For experiment [1] the following is noted: cited from earlier work.
A further experiment addresses T1, hSCN3A (Homo sapiens, UniProt Q9NY46).
T1 construct: expressed in transfected cells
In words: SCN3A inhibitory activity in HEK cells stably expressing hSCN3A (whole-cell patch clamp / radiotracer efflux HTS). The class given is cell-based. The following applies: HEK cells stably transfected with hSCN3A. On the technique in general: In patch-clamp work, channel activity is measured electrically.

Structures are written as SMILES. pIC50: −log10 of the molar value.

T1 sequence (Q9NY46 whole entry): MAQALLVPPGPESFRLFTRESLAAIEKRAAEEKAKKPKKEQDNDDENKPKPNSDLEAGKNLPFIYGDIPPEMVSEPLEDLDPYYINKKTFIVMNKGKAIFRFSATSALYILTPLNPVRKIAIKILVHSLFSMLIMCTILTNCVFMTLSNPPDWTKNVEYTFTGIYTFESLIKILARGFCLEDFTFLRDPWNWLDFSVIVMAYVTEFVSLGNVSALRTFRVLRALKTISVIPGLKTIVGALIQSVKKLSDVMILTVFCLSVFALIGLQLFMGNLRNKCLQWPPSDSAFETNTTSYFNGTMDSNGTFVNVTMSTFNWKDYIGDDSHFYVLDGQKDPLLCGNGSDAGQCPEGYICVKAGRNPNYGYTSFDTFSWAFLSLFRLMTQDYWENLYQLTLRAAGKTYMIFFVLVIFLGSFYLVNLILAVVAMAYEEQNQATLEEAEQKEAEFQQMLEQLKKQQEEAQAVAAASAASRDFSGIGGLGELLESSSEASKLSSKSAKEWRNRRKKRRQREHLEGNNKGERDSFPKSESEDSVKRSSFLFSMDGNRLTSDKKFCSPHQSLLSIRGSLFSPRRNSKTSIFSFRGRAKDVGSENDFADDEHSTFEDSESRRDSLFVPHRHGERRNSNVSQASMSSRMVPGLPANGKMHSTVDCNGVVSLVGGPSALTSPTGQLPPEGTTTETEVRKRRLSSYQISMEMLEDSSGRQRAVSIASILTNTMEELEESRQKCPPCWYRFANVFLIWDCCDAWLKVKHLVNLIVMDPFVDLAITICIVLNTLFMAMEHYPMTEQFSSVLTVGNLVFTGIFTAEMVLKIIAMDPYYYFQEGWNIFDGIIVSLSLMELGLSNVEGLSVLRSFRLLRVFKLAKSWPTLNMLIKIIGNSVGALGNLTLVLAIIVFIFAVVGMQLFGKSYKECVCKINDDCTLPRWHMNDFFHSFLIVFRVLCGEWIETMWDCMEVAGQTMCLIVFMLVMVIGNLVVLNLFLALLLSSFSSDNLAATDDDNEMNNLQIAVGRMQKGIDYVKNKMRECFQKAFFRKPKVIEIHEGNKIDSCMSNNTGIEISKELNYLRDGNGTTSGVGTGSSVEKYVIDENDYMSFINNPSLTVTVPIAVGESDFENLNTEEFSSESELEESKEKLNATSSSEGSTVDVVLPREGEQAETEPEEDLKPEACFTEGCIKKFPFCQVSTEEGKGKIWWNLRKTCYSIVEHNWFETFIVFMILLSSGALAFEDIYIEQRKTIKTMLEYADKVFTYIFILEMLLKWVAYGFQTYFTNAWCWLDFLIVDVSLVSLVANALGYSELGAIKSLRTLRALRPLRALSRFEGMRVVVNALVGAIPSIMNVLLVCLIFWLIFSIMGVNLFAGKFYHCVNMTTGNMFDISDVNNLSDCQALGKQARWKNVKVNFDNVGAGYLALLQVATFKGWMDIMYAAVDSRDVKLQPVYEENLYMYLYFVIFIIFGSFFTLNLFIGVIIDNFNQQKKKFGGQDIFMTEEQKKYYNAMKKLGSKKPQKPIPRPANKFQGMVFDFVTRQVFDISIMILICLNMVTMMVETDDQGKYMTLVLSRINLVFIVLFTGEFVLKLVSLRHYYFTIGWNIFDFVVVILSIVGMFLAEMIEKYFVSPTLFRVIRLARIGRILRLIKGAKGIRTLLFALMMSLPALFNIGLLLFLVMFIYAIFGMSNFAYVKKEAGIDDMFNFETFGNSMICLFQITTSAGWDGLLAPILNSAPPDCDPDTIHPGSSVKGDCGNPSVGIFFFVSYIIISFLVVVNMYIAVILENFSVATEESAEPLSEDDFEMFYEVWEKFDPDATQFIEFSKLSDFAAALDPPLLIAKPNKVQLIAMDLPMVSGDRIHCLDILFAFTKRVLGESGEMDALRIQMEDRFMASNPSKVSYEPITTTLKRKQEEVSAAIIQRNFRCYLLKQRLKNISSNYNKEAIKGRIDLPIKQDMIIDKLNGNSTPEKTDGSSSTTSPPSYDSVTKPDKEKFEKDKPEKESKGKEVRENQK
Chain of Nav1.8 (Q9Y5Y9 whole entry, looked up): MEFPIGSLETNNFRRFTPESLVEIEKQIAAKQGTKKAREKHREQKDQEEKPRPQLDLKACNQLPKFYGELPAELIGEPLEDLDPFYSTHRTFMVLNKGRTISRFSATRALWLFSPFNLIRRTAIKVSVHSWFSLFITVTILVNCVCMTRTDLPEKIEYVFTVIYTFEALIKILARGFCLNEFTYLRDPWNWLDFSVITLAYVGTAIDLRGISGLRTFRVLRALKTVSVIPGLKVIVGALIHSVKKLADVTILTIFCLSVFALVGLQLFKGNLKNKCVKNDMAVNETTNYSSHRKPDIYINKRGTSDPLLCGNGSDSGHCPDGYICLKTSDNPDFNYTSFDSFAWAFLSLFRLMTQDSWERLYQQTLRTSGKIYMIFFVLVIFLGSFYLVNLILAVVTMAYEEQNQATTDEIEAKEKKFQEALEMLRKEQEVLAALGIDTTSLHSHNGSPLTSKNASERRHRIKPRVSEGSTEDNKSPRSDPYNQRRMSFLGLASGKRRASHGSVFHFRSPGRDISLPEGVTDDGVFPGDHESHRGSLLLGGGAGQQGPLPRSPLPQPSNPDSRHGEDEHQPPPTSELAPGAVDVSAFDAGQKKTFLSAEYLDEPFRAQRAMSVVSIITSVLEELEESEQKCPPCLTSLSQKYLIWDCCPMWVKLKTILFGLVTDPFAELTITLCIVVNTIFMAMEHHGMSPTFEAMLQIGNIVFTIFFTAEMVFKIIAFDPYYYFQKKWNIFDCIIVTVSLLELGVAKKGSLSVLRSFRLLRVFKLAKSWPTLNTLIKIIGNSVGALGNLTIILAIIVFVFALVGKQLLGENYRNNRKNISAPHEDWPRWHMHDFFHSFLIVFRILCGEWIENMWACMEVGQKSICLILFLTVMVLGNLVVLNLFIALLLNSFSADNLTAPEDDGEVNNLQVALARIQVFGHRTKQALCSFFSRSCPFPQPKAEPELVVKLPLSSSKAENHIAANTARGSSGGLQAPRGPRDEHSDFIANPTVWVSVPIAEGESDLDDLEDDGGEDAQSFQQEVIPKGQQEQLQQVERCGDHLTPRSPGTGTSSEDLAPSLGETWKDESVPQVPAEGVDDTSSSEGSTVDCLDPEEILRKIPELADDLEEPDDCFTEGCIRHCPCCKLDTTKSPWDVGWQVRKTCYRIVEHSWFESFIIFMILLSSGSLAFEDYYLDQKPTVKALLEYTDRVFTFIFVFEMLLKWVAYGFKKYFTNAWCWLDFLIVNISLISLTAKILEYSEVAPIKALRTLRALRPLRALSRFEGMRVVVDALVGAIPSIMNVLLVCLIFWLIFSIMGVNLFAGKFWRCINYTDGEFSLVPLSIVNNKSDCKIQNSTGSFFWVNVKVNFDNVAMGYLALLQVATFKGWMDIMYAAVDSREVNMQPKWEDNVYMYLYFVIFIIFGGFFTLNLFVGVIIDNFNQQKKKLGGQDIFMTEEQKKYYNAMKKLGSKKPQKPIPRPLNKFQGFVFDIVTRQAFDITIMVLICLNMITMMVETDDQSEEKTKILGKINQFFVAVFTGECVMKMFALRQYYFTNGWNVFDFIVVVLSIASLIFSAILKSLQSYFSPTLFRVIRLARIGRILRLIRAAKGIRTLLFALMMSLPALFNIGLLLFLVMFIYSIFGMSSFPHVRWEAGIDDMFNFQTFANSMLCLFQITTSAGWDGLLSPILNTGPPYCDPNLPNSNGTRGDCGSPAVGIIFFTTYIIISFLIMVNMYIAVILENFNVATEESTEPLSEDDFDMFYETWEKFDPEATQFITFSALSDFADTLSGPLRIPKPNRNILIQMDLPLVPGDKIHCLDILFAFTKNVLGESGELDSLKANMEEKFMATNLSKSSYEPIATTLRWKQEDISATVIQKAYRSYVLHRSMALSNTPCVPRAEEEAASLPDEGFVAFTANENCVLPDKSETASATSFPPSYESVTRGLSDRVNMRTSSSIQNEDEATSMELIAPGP
Chain of Nav1.3 (Q9NY46 whole entry, looked up): as the sequence (Q9NY46 whole entry) above

Regarding `NC1=N[C@H](O)[C@H]2[C@H]3O[C@]4(O)O[C@@H]([C@@H](O)[C@@]2(N1)[C@@H]4O)[C@]3(O)CO` [TTX, tetrodotoxin], the pIC50 on Nav1.6 is 8.22; at Nav1.2, 8.00; at Nav1.9 it was 6.00; on Nav1.1 it was 8.00; at Nav1.8, 4.30; at Nav1.3 it was 7.82.

Regarding `NCC1(CC(=O)O)CCCCC1` [gabapentin], the “patients respond to gabapentin treatment for neuropathic pain” value in experiment [1] is recorded as 30%.

Compound `O=S(=O)(Nc1nccs1)c1ccc(-c2nc(CCCOc3ccc(Cl)cc3)c[nH]2)cc1` [Compound 9, 4-{4-[3-(4-Chloro-phenoxy)-propyl]-1H-imidazol-2-yl}-N-thiazol-2-yl-benzenesulfonamide] had a pIC50 on hSCN3A of 6.00 to 6.30.

`O=S(=O)(Nc1nccs1)c1ccc(-c2ncc(Cc3ccc(Cl)cc3)[nH]2)cc1` [Compound 8, 4-[5-(4-Chloro-benzyl)-1H-imidazol-2-yl]-N-thiazol-2-yl-benzenesulfonamide] gave a pIC50 against hSCN3A of 6.30 to 7.00.

Consider `O=S(=O)(Nc1nccs1)c1ccc(-c2nc(C3(c4ccccc4)CC3)c[nH]2)cc1` [Compound 41, 4-[4-(1-Phenyl-cyclopropyl)-1H-imidazol-2-yl]-N-thiazol-2-yl-benzenesulfonamide], for which the pIC50 on hSCN3A is < 6.00.

For `O=S(=O)(Nc1nccs1)c1ccc(-c2nc(Cc3ccccc3F)c[nH]2)cc1` [Compound 35, 4-[4-(2-Fluoro-benzyl)-1H-imidazol-2-yl]-N-thiazol-2-yl-benzenesulfonamide], the pIC50 against hSCN3A is 6.00 to 6.30.

For `COCn1c(Cc2ccc(Cl)c(Cl)c2)nnc1-c1ccc(S(=O)(=O)Nc2nccs2)cc1` [Compound 97, 4-[5-(3,4-Dichloro-benzyl)-4-methoxymethyl-4H-[1,2,4]triazol-3-yl]-N-thiazol-2-yl-benzenesulfonamide], the pIC50 against hSCN3A was 6.00 to 6.30.

As for `Cc1cccc(Cc2c[nH]c(-c3ccc(S(=O)(=O)Nc4nccs4)cc3)n2)c1` [Compound 27, 4-[4-(3-Methyl-benzyl)-1H-imidazol-2-yl]-N-thiazol-2-yl-benzenesulfonamide], on hSCN3A, the pIC50 is 6.30 to 7.00.

For `O=S(=O)(Nc1nccs1)c1ccc(-c2nc(C3CCC(c4ccc(Cl)cc4)CC3)c[nH]2)cc1` (centres unmarked) [Compound 12, 4-{4-[4-(4-Chloro-phenyl)-cyclohexyl]-1H-imidazol-2-yl}-N-thiazol-2-yl-benzenesulfonamide], the pIC50 on hSCN3A was > 7.00.

Consider `O=S(=O)(NCc1nccs1)c1ccc(-c2nc(Cc3cc(F)cc(F)c3)c[nH]2)cc1` [Compound 98, 4-[4-(3,5-Difluoro-benzyl)-1H-imidazol-2-yl]-N-thiazol-2-ylmethyl-benzenesulfonamide], for which the pIC50 on hSCN3A was < 6.00.

`Cc1ccccc1CCc1c[nH]c(-c2ccc(S(=O)(=O)Nc3nccs3)cc2)n1` [Compound 33, N-Thiazol-2-yl-4-[4-(2-o-tolyl-ethyl)-1H-imidazol-2-yl]-benzenesulfonamide]: the pIC50 at hSCN3A is 6.00 to 6.30.

At hSCN3A, `O=S(=O)(Nc1nccs1)c1ccc(NCC(c2ccccc2)c2ccccc2)nc1` [Compound 124, 6-(2,2-Diphenyl-ethylamino)-pyridine-3-sulfonic acid thiazol-2-ylamide] had a pIC50 of 6.00 to 6.30.

As to `O=S(=O)(Nc1nccs1)c1ccc(-c2nc(CCCOc3ccc(Cl)cc3Cl)c[nH]2)cc1` [Compound 11, 4-{4-[3-(2,4-Dichloro-phenoxy)-propyl]-1H-imidazol-2-yl}-N-thiazol-2-yl-benzenesulfonamide], the pIC50 on hSCN3A is > 7.00.

Take `O=S(=O)(Nc1nccs1)c1ccc(-c2nc3ccccc3[nH]2)cc1` [Compound 10, 4-(1H-Benzoimidazol-2-yl)-N-thiazol-2-yl-benzenesulfonamide]: the pIC50 on hSCN3A was < 6.00.

For the compound `O=S(=O)(Nc1nccs1)c1ccc(-c2nnc(COc3ncc(Cl)cc3Cl)[nH]2)cc1` [Compound 120, 4-[5-(3,5-Dichloro-pyridin-2-yloxymethyl)-4H-[1,2,4]triazol-3-yl]-n-thiazol-2-yl-benzenesulfonamide], at hSCN3A, the pIC50 is < 6.00.

On to `O=S(=O)(Nc1nccs1)c1ccc(-c2nc(CCc3cccc(Cl)c3)c[nH]2)cc1` [Compound 28, 4-{4-[2-(3-Chloro-phenyl)-ethyl]-1H-imidazol-2-yl}-N-thiazol-2-yl-benzenesulfonamide], for which the pIC50 on hSCN3A was 6.30 to 7.00.

Consider `Cc1ccc(Cc2c[nH]c(-c3ccc(S(=O)(=O)Nc4nccs4)cc3)n2)cc1` [Compound 32, 4-[4-(4-Methyl-benzyl)-1H-imidazol-2-yl]-N-thiazol-2-yl-benzenesulfonamide], for which the pIC50 against hSCN3A is < 6.00.

`O=S(=O)(Nc1nccs1)c1ccc(-c2nc(COc3ncc(C(F)(F)F)cc3Cl)n[nH]2)cc1` [Compound 117, 4-[5-(3-Chloro-5-trifluoromethyl-pyridin-2-yloxymethyl)-2H-[1,2,4]triazol-3-yl]-n-thiazol-2-yl-benzenesulfonamide] gave a pIC50 at hSCN3A of 6.00 to 6.30.

`O=S(=O)(Nc1nccs1)c1ccc(-c2nc(CCc3ccc(F)cc3)c[nH]2)cc1` [Compound 15, 4-{4-[2-(4-Fluoro-phenyl)-ethyl]-1H-imidazol-2-yl}-N-thiazol-2-yl-benzenesulfonamide] showed a pIC50 at hSCN3A of 6.30 to 7.00.

For `O=S(=O)(Nc1nccs1)c1ccc(-c2nnc(COc3ccc(C(F)(F)F)cn3)[nH]2)cc1` [Compound 118, N-thiazol-2-yl-4-[5-(5-trifluoromethyl-pyridin-2-yloxymethyl)-4H-[1,2,4]triazol-3-yl]-benzenesulfonamide], the pIC50 against hSCN3A was < 6.00.

The compound `O=S(=O)(Nc1nccs1)c1ccc(-c2nc(Cc3ccc(F)c(F)c3)c[nH]2)cc1` [Compound 23, 4-[4-(3,4-Difluoro-benzyl)-1H-imidazol-2-yl]-N-thiazol-2-yl-benzenesulfonamide] gave a pIC50 against hSCN3A of 6.30 to 7.00.

These data come from US7615569B2, “Inhibitors of ion channels” (Icagen, Inc., priority 2005, dated 2009).
